ChEMBL document CHEMBL1201862, “PubChem BioAssay data set” (2004)
Activity calls are given as the source filed them.

Columns and labels:
Phosphomannomutase 2 = Phosphomannomutase 2 (Homo sapiens, UniProt O15305); assay: Counter screen SAR assay for PMM2 inhibitors via a fluorescence intensity assay. [Related pubchem assays (depositor defined):AID1545, AID1574]
[1] = biological target: T1, Mannose-6-phosphate isomerase (Homo sapiens, UniProt P34949); assay: PMI enzyme inhibitors, confirmation, biochemical, fluorescence intensity (AID 1535)
T1 sequence (P34949 whole entry): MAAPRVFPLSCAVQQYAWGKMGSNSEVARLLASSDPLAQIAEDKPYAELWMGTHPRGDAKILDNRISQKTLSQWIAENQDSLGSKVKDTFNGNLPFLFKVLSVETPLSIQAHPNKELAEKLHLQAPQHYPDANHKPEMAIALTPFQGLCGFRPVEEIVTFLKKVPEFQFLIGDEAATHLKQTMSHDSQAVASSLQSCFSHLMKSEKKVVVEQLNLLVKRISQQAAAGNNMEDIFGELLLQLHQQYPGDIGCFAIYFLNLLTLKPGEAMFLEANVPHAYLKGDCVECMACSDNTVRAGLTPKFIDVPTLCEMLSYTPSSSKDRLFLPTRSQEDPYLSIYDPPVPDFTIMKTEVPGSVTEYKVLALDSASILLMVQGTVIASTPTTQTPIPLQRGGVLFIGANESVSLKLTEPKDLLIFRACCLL

[2] = biological target: Envelope glycoprotein gp160 (Human immunodeficiency virus 1, UniProt Q6QLK5); assay: inhibitors of HIV fusion peptide binding, primary screen, biochemical, uHTS, fluorescence dequenching (AID 1986)
Envelope glycoprotein gp160, sequence (Q6QLK5 whole entry, the tested form may be a part): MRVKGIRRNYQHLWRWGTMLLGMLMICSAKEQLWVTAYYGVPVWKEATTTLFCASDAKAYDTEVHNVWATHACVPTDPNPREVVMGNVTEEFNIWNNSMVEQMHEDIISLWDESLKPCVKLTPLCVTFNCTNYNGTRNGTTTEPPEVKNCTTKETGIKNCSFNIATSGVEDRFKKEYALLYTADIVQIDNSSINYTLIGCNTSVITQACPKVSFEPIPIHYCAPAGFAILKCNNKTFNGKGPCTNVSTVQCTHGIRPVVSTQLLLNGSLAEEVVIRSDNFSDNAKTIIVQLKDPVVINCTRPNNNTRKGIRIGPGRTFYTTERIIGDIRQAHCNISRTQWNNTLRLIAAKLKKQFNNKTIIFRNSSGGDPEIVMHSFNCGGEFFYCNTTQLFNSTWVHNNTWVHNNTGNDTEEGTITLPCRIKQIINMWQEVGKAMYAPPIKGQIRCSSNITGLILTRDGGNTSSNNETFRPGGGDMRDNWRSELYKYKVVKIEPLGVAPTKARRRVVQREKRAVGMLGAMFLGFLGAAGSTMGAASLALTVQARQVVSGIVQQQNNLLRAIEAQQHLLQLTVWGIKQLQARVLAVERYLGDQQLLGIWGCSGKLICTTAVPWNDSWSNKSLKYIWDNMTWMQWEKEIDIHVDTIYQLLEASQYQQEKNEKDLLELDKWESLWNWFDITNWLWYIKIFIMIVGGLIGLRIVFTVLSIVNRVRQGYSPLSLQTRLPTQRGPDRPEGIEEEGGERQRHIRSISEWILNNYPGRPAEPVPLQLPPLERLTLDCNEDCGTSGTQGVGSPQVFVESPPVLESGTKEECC

Genome polyprotein = Genome polyprotein (dengue virus type 2, UniProt P29990); assay: Dengue-2 NS5 methyltransferase inhibitors, primary screen, biochemical, confirmation dose response (AID 588689); type: functional
[3] = biological target: Tyrosine-protein phosphatase non-receptor type 12 (Homo sapiens, UniProt Q05209); assay: SAR Selectivity Analysis of small molecule inhibitors of PEST using pCAP in a fluorescence assay. [Related pubchem assays (depositor defined):AID1779, AID1784, AID2135]; type: functional
Tyrosine-protein phosphatase non-receptor type 12, sequence (Q05209 whole entry): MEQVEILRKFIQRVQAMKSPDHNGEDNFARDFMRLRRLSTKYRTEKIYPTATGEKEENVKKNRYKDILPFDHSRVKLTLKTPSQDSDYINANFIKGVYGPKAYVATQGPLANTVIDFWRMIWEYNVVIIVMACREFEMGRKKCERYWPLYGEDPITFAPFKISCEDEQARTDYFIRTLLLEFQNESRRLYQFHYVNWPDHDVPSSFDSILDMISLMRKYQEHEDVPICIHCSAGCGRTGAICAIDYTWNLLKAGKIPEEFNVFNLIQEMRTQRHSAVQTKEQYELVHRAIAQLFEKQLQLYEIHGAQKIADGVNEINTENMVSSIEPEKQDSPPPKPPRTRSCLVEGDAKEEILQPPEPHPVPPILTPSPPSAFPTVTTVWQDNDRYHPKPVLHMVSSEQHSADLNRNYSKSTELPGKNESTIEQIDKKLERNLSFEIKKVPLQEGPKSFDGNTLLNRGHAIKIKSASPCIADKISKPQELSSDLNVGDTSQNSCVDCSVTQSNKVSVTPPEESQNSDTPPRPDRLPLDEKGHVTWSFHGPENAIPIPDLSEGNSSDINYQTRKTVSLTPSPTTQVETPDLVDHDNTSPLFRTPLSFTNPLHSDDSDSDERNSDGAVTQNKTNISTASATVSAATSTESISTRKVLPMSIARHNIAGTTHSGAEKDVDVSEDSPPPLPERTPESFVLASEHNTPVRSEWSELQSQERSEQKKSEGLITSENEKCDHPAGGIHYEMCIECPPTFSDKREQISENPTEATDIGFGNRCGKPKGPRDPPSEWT

[4] = biological target: T2, Tyrosine-protein phosphatase non-receptor type 22 (Homo sapiens, UniProt Q9Y2R2); assay: inhibitors of LYP phosphatase, biochemical, fluorescence intensity, uHTS (AID 1779)
T2 sequence (Q9Y2R2 whole entry): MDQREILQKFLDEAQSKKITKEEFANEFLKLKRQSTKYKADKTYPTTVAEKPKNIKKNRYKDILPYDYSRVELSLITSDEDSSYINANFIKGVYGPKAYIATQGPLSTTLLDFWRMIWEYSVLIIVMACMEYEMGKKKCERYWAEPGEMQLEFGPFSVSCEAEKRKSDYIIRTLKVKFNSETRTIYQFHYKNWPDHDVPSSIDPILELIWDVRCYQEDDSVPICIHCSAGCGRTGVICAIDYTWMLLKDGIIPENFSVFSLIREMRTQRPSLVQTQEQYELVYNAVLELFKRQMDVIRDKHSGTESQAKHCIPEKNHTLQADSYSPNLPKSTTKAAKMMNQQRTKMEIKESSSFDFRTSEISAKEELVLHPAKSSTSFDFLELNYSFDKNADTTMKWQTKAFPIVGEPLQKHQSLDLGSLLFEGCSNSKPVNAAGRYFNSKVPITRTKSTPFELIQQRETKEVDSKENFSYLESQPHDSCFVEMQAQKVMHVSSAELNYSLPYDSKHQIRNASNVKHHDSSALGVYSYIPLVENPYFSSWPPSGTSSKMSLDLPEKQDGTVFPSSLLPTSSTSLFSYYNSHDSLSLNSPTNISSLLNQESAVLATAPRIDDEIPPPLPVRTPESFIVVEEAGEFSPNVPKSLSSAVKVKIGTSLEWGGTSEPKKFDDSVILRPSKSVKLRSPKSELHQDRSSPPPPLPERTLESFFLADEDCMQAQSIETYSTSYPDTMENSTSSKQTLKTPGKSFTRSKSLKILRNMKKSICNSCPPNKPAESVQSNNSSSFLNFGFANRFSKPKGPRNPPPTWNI

[5] = biological target: T3, Small ubiquitin-related modifier 2 (Homo sapiens, UniProt P61956); assay: inhibitors of SUMO2 protein-protein interaction, dose response, selectivity assay for SUMO1 interaction inhibitor project, biochemical, FRET, human SUMO2, uHTS hits (AID 624384); type: functional; settings: read-out: IC50_Mean
T3 sequence (P61956 whole entry): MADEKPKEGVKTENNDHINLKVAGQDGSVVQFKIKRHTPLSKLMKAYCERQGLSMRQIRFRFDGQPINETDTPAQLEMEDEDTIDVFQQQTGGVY

SUMO E1/E2 = SUMO E1/E2 (Homo sapiens, UniProt P63279+Q9UBE0+Q9UBT2); assay: SAR analysis of SUMOylation using HTRF in an in-Vitro dose response assay. [Related pubchem assays (depositor defined):AID2006, AID2011, AID2018, AID2069, AID2658]; type: functional
SUMO E1/E2, sequence (Q9UBE0 whole entry): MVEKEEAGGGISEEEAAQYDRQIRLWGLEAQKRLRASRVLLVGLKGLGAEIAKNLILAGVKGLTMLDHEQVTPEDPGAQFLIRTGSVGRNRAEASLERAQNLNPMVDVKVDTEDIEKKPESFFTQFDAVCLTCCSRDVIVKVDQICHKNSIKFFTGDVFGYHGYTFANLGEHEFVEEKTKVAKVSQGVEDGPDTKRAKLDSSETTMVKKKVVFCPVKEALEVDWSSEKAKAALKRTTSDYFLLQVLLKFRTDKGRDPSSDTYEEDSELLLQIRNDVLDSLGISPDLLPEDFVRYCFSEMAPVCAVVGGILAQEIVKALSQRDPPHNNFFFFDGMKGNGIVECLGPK
SUMO E1/E2, sequence (Q9UBT2 whole entry): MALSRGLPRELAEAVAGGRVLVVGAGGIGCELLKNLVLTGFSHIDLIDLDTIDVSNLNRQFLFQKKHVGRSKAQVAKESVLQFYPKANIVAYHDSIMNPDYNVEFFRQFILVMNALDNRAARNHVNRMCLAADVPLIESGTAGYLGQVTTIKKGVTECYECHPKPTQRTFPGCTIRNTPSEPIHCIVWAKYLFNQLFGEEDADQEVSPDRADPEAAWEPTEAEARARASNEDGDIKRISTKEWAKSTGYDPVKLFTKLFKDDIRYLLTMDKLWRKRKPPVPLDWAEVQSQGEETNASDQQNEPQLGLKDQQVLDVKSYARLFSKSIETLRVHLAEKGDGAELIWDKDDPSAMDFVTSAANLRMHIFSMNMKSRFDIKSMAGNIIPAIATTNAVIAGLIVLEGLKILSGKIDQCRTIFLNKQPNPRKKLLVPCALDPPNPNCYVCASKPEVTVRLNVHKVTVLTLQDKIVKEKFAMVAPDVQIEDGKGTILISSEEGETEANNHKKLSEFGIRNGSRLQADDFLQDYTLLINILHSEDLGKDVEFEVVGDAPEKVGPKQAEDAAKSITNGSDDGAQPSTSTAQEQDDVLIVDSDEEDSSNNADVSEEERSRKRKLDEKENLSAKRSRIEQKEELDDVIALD
SUMO E1/E2, sequence (P63279 whole entry): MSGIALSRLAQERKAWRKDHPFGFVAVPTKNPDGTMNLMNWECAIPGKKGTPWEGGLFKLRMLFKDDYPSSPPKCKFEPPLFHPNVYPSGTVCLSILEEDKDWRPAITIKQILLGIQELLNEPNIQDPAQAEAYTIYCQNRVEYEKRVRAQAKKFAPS

[6] = biological target: T4, Tyrosine-protein phosphatase non-receptor type 7 (Homo sapiens, UniProt P35236); assay: HTS HePTP Fluorescent Assay using OMFP substrate for In Vitro dose response studies. [Related pubchem assays (depositor defined):AID1059, AID1077, AID1784, AID2068, AID2085, AID435032, AID521]; type: functional
T4 sequence (P35236 whole entry): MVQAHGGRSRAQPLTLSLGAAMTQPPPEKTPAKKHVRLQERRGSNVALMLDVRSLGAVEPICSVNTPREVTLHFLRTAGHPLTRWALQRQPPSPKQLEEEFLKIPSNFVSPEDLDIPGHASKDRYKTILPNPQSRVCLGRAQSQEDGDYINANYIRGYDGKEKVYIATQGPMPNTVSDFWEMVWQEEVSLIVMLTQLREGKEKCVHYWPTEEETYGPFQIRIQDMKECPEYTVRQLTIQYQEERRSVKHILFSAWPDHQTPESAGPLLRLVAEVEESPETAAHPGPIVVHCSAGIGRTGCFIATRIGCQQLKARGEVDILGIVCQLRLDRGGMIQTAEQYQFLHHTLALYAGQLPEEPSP

[7] = biological target: T2, Tyrosine-protein phosphatase non-receptor type 22; assay: PubChem AID 2140
[8] = biological target: T2, Tyrosine-protein phosphatase non-receptor type 22; assay: SAR LYP1 Fluorescent Assay using OMFP substrate for In Vitro dose response studies - Set 2. [Related pubchem assays (depositor defined):AID1779, AID1784, AID2140, AID449726, AID488869]; type: functional
[9] = biological target: Eukaryotic translation initiation factor 4E (Mus musculus, UniProt P63073); assay: eIF4E–eIF4G protein interaction inhibitors, dose response, biochemical, TR-FRET (AID 855); type: functional;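 further: potency for disrupting eIF4E binding to eIF4GI seen as loss of FRET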
Eukaryotic translation initiation factor 4E, sequence (P63073 whole entry): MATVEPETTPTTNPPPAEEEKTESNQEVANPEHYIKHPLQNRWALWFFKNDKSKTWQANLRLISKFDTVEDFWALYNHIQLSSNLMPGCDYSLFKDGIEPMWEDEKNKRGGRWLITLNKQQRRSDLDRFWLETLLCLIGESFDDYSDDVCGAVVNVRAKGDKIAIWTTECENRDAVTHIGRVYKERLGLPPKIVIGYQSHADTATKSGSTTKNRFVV

Bcl-2-like protein 1 = Bcl-2-like protein 1 (Homo sapiens, UniProt Q07817); assay: BCL-XL inhibitors, dose response, selectivity assay for MCL1 inhibitor project, biochemical, fluorescence polarization, 1536-well (AID 2218)
Bcl-2-like protein 1, sequence (Q07817 whole entry): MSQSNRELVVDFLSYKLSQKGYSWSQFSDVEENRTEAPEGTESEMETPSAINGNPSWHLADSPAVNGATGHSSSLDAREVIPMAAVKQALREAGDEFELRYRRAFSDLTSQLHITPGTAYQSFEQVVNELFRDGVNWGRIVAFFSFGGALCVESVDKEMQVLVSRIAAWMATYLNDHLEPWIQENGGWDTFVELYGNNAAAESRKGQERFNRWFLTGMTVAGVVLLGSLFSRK

[10] = biological target: T4, Tyrosine-protein phosphatase non-receptor type 7; type: functional
[11] = biological target: T2, Tyrosine-protein phosphatase non-receptor type 22; assay: LYP1 Fluorescent Assay using OMFP substrate for In Vitro dose response studies. [Related pubchem assays (depositor defined):AID1779, AID1784, AID435024]
[12] = biological target: T5, Small ubiquitin-related modifier 1 (Homo sapiens, UniProt P63165); assay: inhibitors of SUMO1 partner interactions, dose response, biochemical, FRET (AID 624383); type: functional; settings: read-out: IC50_Mean
T5 sequence (P63165 whole entry): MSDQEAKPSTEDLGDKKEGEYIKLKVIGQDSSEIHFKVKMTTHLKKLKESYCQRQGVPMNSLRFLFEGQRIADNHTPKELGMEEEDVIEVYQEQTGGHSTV

[13] = biological target: T2, Tyrosine-protein phosphatase non-receptor type 22; assay: PubChem AID 2135
[14] = biological target: T2, Tyrosine-protein phosphatase non-receptor type 22; assay: SAR LYP1 Fluorescent Assay using OMFP substrate for In Vitro dose response studies - Set 3. [Related pubchem assays (depositor defined):AID1779, AID1784, AID2140, AID2686]; type: functional
[15] = biological target: T3, Small ubiquitin-related modifier 2; assay: SUMO2–SIM peptide binding inhibitors, dose response, selectivity assay for SUMO1 interaction inhibitor project, biochemical, fluorescence polarization, uHTS hits (AID 624385); type: functional; settings: read-out: IC50_Mean
Nonstructural protein 1 = Nonstructural protein 1 (Influenza A virus, UniProt Q194T2); type: functional, Influenza A virus (A/California/07/2009(H1N1))
Nonstructural protein 1, sequence (Q194T2 whole entry): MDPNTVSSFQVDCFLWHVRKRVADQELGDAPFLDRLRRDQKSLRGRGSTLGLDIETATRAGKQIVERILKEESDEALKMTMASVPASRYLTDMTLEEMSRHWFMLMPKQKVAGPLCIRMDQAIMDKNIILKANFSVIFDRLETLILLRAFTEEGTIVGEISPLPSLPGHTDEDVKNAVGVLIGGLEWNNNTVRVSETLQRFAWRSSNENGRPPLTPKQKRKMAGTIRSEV

[16] = biological target: T2, Tyrosine-protein phosphatase non-receptor type 22; type: functional
[17] = biological target: T5, Small ubiquitin-related modifier 1; assay: inhibitors of SUMO1 peptide binding, dose response, biochemical, fluorescence polarization, uHTS hits (AID 624382); type: functional; settings: read-out: IC50_Mean
[18] = biological target: T4, Tyrosine-protein phosphatase non-receptor type 7; assay: HePTP (PTPN7) phosphatase inhibitor potency, SAR follow-up, biochemical, set 2 (AID 449736); type: functional
[19] = biological target: T2, Tyrosine-protein phosphatase non-receptor type 22; type: functional; remark: listed apart in the source
[20] = biological target: T6, Induced myeloid leukemia cell differentiation protein Mcl-1 (Homo sapiens, UniProt Q07820); assay: MCL1-BIM BH3 interaction inhibitors, dose response, biochemical, fluorescence polarization, BIM-BH3 peptide, 1536-well (AID 2217)
T6 sequence (Q07820 whole entry): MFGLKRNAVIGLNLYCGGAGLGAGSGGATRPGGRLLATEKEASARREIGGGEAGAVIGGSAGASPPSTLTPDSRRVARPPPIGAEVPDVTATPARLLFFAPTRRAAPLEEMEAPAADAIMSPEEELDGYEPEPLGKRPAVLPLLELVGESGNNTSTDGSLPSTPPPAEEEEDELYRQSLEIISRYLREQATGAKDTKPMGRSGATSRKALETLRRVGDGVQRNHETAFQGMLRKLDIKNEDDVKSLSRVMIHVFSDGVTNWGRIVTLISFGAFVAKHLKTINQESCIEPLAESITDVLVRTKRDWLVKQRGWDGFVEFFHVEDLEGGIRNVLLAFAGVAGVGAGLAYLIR

[21] = biological target: T2, Tyrosine-protein phosphatase non-receptor type 22; assay: SAR LYP1 Fluorescent Assay using pCAP substrate for In Vitro dose response studies - Set 2. [Related pubchem assays (depositor defined):AID1779, AID1784, AID2135, AID449727]; type: functional
HEK293 = assay: cells; settings: Homo sapiens;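 further: cells exposed to compound for 14 hours overnight before viability readout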
Tumor necrosis factor = Tumor necrosis factor (Homo sapiens, UniProt P01375); assay: TNFa-triggered NF-kB activation inhibitors, SAR follow-up, cell-based, revised (AID 2337); type: functional
Tumor necrosis factor, sequence (P01375 whole entry): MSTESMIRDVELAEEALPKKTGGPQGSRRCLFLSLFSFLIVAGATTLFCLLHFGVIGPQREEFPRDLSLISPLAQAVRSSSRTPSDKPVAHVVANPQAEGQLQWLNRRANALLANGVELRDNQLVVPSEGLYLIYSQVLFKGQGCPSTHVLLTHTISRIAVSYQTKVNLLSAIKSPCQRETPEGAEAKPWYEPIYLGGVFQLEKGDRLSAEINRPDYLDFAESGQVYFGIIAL

[22] = biological target: T7, Heat shock factor protein 1 (Mus musculus, UniProt P38532); assay: inhibition of MG132-induced HSE-luciferase signal, confirmation, cell-based, NIH3T3, luminescence, dose retest (AID 2382); type: functional;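 further: NIH3T3 fibroblasts with HSF1-driven luciferase reporter stressed by proteasome inhibitor MG132; luminescence from HSF1-driven luciferase expression after 8 hours of MG132 stress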
T7 sequence (P38532 whole entry): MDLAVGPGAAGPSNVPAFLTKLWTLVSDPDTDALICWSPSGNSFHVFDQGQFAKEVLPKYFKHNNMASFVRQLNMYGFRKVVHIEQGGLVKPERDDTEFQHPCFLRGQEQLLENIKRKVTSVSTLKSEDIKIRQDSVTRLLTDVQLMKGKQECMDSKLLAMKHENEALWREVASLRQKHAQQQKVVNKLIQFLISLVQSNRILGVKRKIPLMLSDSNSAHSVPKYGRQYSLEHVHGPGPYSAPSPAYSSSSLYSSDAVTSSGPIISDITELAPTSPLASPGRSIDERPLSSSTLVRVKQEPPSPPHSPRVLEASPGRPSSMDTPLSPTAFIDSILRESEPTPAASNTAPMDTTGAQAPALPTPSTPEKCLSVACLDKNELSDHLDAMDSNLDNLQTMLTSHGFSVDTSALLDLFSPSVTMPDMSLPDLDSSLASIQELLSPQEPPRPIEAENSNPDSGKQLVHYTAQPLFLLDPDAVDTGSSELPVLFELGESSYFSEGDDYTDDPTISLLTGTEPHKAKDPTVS

[23] = biological target: T8, COUP transcription factor 2 (Homo sapiens, UniProt P24468); assay: Luminescence-based cell-based high throughput dose response assay to identify inhibitors of COUP-TFII (NR2F2).; type: functional;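 further: HEK293 cells transiently cotransfected with COUP-TFII expression vector and reporter; luciferase reporter luminescence driven by COUP-TFII from the pX2-168 reporter plasmid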
T8 sequence (P24468 whole entry): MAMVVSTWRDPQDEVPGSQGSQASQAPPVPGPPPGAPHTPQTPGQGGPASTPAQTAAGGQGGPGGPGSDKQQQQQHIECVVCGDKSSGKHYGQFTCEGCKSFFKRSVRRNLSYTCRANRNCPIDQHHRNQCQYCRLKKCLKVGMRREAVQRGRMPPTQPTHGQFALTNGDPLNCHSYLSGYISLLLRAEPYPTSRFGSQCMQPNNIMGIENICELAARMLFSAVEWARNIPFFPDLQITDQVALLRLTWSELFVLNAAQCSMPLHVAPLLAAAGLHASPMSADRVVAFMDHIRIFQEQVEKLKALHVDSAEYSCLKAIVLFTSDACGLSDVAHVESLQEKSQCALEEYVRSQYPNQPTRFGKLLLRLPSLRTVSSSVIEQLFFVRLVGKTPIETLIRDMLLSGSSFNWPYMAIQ

[24] = biological target: T6, Induced myeloid leukemia cell differentiation protein Mcl-1; type: functional
[25] = biological target: Nucleotide-binding oligomerization domain-containing protein 1 (Homo sapiens, UniProt Q9Y239); assay: NOD1 signaling inhibitors, SAR follow-up, revised (AID 2333); type: functional
[26] = Luminescence-based counterscreen assay for KLF5 inhibitors: dose response cell-based high throughput screening assay to identify cytotoxic compounds using the IEC-6 intestinal epithelial cell line. [Related pubchem assays: 1700 (Primary screen.), 1834 (Confirmation screen.), 1858 (Summary AID.), 1905 (Counterscreen.)]; type: functional

Phosphomannomutase 2, sequence (O15305 whole entry): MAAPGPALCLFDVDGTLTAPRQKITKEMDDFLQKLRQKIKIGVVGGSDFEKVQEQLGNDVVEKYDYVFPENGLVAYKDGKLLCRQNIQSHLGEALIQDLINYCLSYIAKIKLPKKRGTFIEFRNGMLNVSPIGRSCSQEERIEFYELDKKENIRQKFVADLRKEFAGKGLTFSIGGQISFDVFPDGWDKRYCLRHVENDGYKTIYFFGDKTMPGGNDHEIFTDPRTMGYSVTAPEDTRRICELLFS

O=P(c1ccccc1)(c1nc2ccccc2s1)N1CCOCC1 (stereo not drawn)
IC50 (Phosphomannomutase 2): > 100 µM (inactive) | IC50 [1]: > 50 µM (inactive)

Cc1c(Cl)cccc1NS(=O)(=O)c1ccc2c(c1)C1C=CCC1C(c1ccc(C(=O)O)cc1)N2 (stereo not drawn)
IC50 [2]: 5.02 µM (active) | IC50 (Genome polyprotein): 62.2 µM (active) | IC50 [3]: 2.36 µM (active) | IC50 [4]: 20.8 µM (active) | IC50 [5]: 5.02 µM (active) | IC50 (SUMO E1/E2): 26.9 µM (active) | IC50 [6]: 37.5 µM (active) | IC50 [7]: 47.4 µM (active) | IC50 [8]: 43.7 µM (active) | IC50 [9]: 14.2 µM (active) | IC50 (Bcl-2-like protein 1): 50.8 µM (not active) | IC50 [10]: 49.8 µM (active) | IC50 [11]: 39.9 µM (active) | IC50 [12]: 23.6 µM (inactive) | IC50 [13]: > 100 µM (inactive) | IC50 [14]: 15.8 µM (active) | IC50 [15]: 12.6 µM (active) | IC50 (Nonstructural protein 1): 82.4 µM (active) | IC50 [16]: 19.6 µM (active) | IC50 [17]: 5.38 µM (active) | IC50 [18]: 3.93 µM (active) | IC50 [19]: 48.5 µM (active) | IC50 [20]: 6.54 µM (active) | IC50 [21]: 45 µM (active)

COC(=O)c1ccc2nc(Nc3nc4ccc(F)cc4s3)sc2c1
IC50 (HEK293): > 20 µM (inactive) | IC50 (Tumor necrosis factor): 0.462 µM (active) | EC50 [22]: < 0.16 µM (active) | IC50 [23]: 34 µM (inactive) | IC50 [24]: 1.11 µM (active) | IC50 [25]: 1.91 µM (active) | IC50 [26]: > 39.8 µM (not active)
